From ChEMBL document CHEMBL6071137, “Synthesis and biological studies of 2-aminothiophene derivatives as positive allosteric modulators of glucagon-like peptide 1 receptor” (2024) come the findings set out here.

Activity calls are given as the source filed them. No cut-off for these calls is given here. A value given as a limit tells only on which side of the number the result lay.

The target of assay [1] is Glucagon-like peptide 1 receptor (Homo sapiens) (UniProt P43220). Nature of the assay: Positive allosteric modulation of human GLP-1 receptor in HEK cells expressing luciferase2P assessed as cAMP level incubated for 4 hrs by luciferase based assay relative to GLP-1. The assay is classed as functional, cell-based. More on the design: concentration or dose not given beside the values. The settings on record: filed as positive allosteric modulator. In general terms: Cyclic AMP is a second messenger, typically raised through Gs and lowered through Gi signalling.
Glucagon-like peptide 1 receptor (Homo sapiens), sequence (P43220 whole entry): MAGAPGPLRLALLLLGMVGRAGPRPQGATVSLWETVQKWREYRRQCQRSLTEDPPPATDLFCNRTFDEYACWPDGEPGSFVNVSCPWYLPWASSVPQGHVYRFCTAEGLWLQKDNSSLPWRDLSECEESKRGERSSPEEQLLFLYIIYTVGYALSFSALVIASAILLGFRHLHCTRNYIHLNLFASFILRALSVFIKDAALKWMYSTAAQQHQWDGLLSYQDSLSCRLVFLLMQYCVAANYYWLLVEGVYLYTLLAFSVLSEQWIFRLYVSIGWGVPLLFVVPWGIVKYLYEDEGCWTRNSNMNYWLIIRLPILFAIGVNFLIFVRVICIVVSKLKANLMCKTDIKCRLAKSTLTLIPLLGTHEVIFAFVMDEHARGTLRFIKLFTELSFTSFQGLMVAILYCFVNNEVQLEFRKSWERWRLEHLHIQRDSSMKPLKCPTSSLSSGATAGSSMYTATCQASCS

The target is the same in assay [2]. Nature of the assay: Positive allosteric modulation of human GLP-1 receptor in HEK cells expressing luciferase2P assessed as fold increase in GLP-1R activity incubated for 4 hrs in presence of GLP-1 by luciferase based assay relative to GLP-1 alone. The assay is classed as cell-based. The conditions noted are these: filed as positive allosteric modulator.
For assay [3] the target is unchanged. The assay is described as follows: Positive allosteric modulation of human GLP-1 receptor in HEK cells expressing luciferase2P at 5 uM incubated for 4 hrs in presence of varying concentrations of GLP-1 by luciferase based assay. The conditions noted are these: filed as positive allosteric modulator. The class given is cell-based.
Assay [4] shares this target. Nature of the assay: Positive allosteric modulation of human GLP-1 receptor in HEK cells expressing luciferase2P incubated for 4 hrs in presence of 10 nM of GLP-1 by luciferase based assay. The class given is cell-based. The settings on record: filed as positive allosteric modulator, dose 0.78-100 µM.
Assay [5] is described as follows: Induction of glucose dependent insulin secretion in rat INS-1 832/13 cells expressing GLP-1R assessed as fold increase at 5 uM starved for 2 hrs in KRB buffer followed by 16.7 mM of glucose addition and measured after 90 mins in presence of GLP-1 by ELISA. The settings on record: 1.5 h. The class given is functional, INS1(832/13). For orientation: ELISA stands for enzyme-linked immunosorbent assay.

For the next assay, the system named is INS1(832/13). Nature of the assay: Induction of glucose dependent insulin secretion in rat INS-1 832/13 cells expressing GLP-1R at 5 uM starved for 2 hrs in KRB buffer followed by glucose addition and measured after 90 mins by ELISA. The class given is functional, cell-based.

With `CS(=O)(=O)N1CCc2c(sc(N)c2C(=O)c2ccc(Cl)cc2)C1`, the Activity in assay [1] worked out at 142%. In addition, the fold change (FC) in assay [2] was greater than 2.

With `Nc1sc2c(c1C(=O)c1ccccc1)CCN(S(=O)(=O)C1CC1)C2`, the Activity in assay [1] was determined as 131%. For the same compound, in assay [2], the fold change (FC) is greater than 2.

Turning to `CCOC(=O)c1c(N)sc2c1CCN(C(C)C)C2`, the Activity in assay [1] was 82.2%. In assay [2], the fold change (FC) is greater than 2.

Take `CC1CCc2c(sc(N)c2C(=O)c2ccc(Cl)cc2)C1` (racemic): in assay [1], the Activity was determined as 128%. Further, the fold change (FC) in assay [2] is greater than 2.

As for `C=CCOC(=O)N1CCc2c(sc(N)c2C(=O)OCC)C1`, in assay [1], the Activity is 232%. Further, the fold change (FC) in assay [2] is greater than 2.

On to `CCOC(=O)c1c(N)sc2c1CCN(C1CC1)C2`, for which the Activity in assay [1] was 88.3%. Also, the fold change (FC) in assay [2] was greater than 2.

As for `CCOC(=O)c1c(N)sc2c1CCOC2`, the Activity in assay [1] was 86.5%. The fold change (FC) in assay [2] is greater than 2.

Regarding `CN1CCc2c(sc(N)c2C(=O)c2ccc(Cl)cc2)C1`, the Activity in assay [1] was determined as 124%. Also, in assay [2], the fold change (FC) was greater than 2.

Take `Cc1ccc(C(=O)c2c(N)sc3c2CCC(C)C3)cc1` (racemic): the outcome (in assay [3]; in the assay with INS1(832/13)) was Active. The figures for the Activity entry in assay [4] and in assay [1] were “Dose-Dependent Effect” and 242%, respectively. The fold change (FC) in assay [2] and in assay [5] was greater than 2 throughout.

Consider `CCOC(=O)c1c(N)sc2c1CCC(C)C2` (racemic), for which the Activity in assay [1] came out at 159%. Besides, the fold change (FC) in assay [2] is greater than 2.

Turning to `CC(=O)N1CCc2c(sc(N)c2C(=O)c2ccc(C)cc2)C1`, the Activity in assay [1] was determined as 196%. For the same compound, in assay [2], the fold change (FC) is greater than 2.

Take `CCOC(=O)c1c(N)sc2c1CCC(C(C)(C)C)C2` (racemic): in assay [1], the Activity worked out at 195%. Moreover, in assay [2], the fold change (FC) is greater than 2.

For the compound `CCOC(=O)c1c(N)sc2c1CCC(C(C)C)C2` (racemic), the Activity in assay [1] was 247%. Moreover, the fold change (FC) in assay [2] was greater than 2.

As to `CCN1CCc2c(sc(N)c2C(=O)c2ccc(C)cc2)C1`, the Activity in assay [1] was 99.3%. Further, the fold change (FC) in assay [2] was greater than 2.

Consider `CCOC(=O)c1c(N)sc2c1CCN(S(=O)(=O)C1CC1)C2`, for which, in assay [1], the Activity amounted to 106%. Also, in assay [2], the fold change (FC) was greater than 2.

In the case of `C=CCOC(=O)N1CCc2c(sc(N)c2C(=O)c2ccccc2)C1`, the result (in assay [3]; in the assay on INS1(832/13)) was Active. Moreover, the Activity result in assay [4] was “Dose-Dependent Effect”; in assay [1], 247%. Besides, the fold change (FC) in assay [2] and in assay [5] was greater than 2 in each case.

With `CCOC(=O)N1CCc2c(sc(N)c2C(=O)c2ccc(C)cc2)C1`, in assay [1], the Activity was determined as 98.1%. The fold change (FC) in assay [2] is greater than 2.

On to `CCOC(=O)c1c(N)sc2c1CCSC2`, for which the Activity in assay [1] was determined as 192%. In addition, the fold change (FC) in assay [2] was greater than 2.

As for `CC(=O)N1CCc2c(sc(N)c2C(=O)c2ccccc2)C1`, the Activity in assay [1] turned out to be 231%. Also, the fold change (FC) in assay [2] is greater than 2.

Consider `CCOC(=O)c1c(N)sc2c1CCN(C(=O)OC(C)(C)C)C2`, for which, in assay [1], the Activity stood at 164%. In addition, the fold change (FC) in assay [2] is greater than 2.

As for `Nc1sc2c(c1C(=O)c1ccc(Cl)cc1)CCOC2`, in assay [1], the Activity was 177%. Also, in assay [2], the fold change (FC) is greater than 2.

Consider `CCOC(=O)c1c(N)sc2c1CCN(C(=O)OCC)C2`, for which, in assay [1], the Activity stood at 258%. Also, the fold change (FC) in assay [2] was greater than 2.

With `CCOC(=O)c1c(N)sc2c1CCN(C(C)=O)C2`, in assay [1], the Activity worked out at 147%. Also, the fold change (FC) in assay [2] was greater than 2.

For `CCOC(=O)N1CCc2c(sc(N)c2C(=O)c2ccccc2)C1`, the outcome (in assay [3]; in the assay with INS1(832/13)) was Active. Moreover, the Activity entry in assay [4] is “Dose-Dependent Effect”; in assay [1], 233%. Also, the fold change (FC) in assay [2] and in assay [5] was greater than 2 in each case.

Turning to `Cc1ccc(C(=O)c2c(N)sc3c2CCSC3)cc1`, the Activity in assay [1] turned out to be 92.5%. Besides, the fold change (FC) in assay [2] was greater than 2.

Regarding `CCOC(=O)c1c(N)sc2c1C(C)CCC2` (racemic), in assay [1], the Activity came out at 82%. For the same compound, the fold change (FC) in assay [2] was greater than 2.

Regarding `CCOC(=O)c1c(N)sc2c1CCC(C)(C)C2`, the Activity in assay [1] is 164%. The fold change (FC) in assay [2] was greater than 2.

For the compound `CCOC(=O)N1CCc2c(sc(N)c2C(=O)c2ccc(Cl)cc2)C1`, the Activity in assay [1] amounted to 222%. Further, in assay [2], the fold change (FC) is greater than 2.

Take `CCOC(=O)c1c(N)sc2c1CCN(C(=O)OCc1ccccc1)C2`: the Activity in assay [1] was 184%. For the same compound, the fold change (FC) in assay [2] is greater than 2.

Turning to `Cc1ccc(C(=O)c2c(N)sc3c2CCN(C(=O)OCc2ccccc2)C3)cc1`, the Activity in assay [1] was 98.1%. Further, the fold change (FC) in assay [2] was greater than 2.

In the case of `CCCC1CCc2c(sc(N)c2C(=O)OCC)C1` (racemic), in assay [1], the Activity turned out to be 157%. Besides, in assay [2], the fold change (FC) is greater than 2.

Regarding `CC(=O)N1CCc2c(sc(N)c2C(=O)c2ccc(Cl)cc2)C1`, the Activity in assay [1] was 239%. Further, the fold change (FC) in assay [2] was greater than 2.

`CCOC(=O)c1c(N)sc2c1CC(C)(C)CC2`: the Activity in assay [1] came out at 133%. The fold change (FC) in assay [2] is greater than 2.

With `CCOC(=O)c1c(N)sc2c1CCN(C)C2`, in assay [1], the Activity came out at 75.7%. The fold change (FC) in assay [2] was greater than 2.

Consider `Nc1sc2c(c1C(=O)c1ccc(Cl)cc1)CCSC2`, for which, in assay [1], the Activity was 112%. Besides, the fold change (FC) in assay [2] is greater than 2.

On to `CCOC(=O)c1c(N)sc2c1CCC(C(F)(F)F)C2` (racemic), for which the Activity in assay [1] was 183%. Further, the fold change (FC) in assay [2] was greater than 2.

`Nc1sc2c(c1C(=O)c1ccc(Cl)cc1)CCN(C(=O)OCc1ccccc1)C2`: the Activity in assay [1] is 155%. Besides, the fold change (FC) in assay [2] is greater than 2.

On to `CCOC(=O)c1c(N)sc2c1CCN(CC)C2`, for which, in assay [1], the Activity was 94.3%. Moreover, in assay [2], the fold change (FC) is greater than 2.

On to `Cc1ccc(C(=O)c2c(N)sc3c2CCOC3)cc1`, for which the Activity in assay [1] was 118%. In assay [2], the fold change (FC) is greater than 2.
